According to US4195171A, “Derivatives of an antibiotic XK-62-2 and process for the production thereof” (Abbott Laboratories, priority 1975, dated 1980):
Converted amounts (≈) assume the structure as drawn. Like-named read-outs stand apart in the source and are kept apart here.

Assays:
Assay in all cases: Antibacterial spectrum, MIC by agar dilution method
Assay type in all cases: cell-based
[1] = tested on: Pseudomonas aeruginosa KY 8512; conditions: KY8512, pH 7.2, strain produces neomycinkanamycin phosphotransferase Type I and Type II, read-out: Minimum Inhibitory Concentration
Description: (§1) XK-62-2, 1-N-[L-(-)-α-hydroxy-γ-aminobutyryl] XK-62-2, Compounds (I-1), (I-2), (II-1) and (II-2) against various Gram-negative and Gram-positive bacteria determined by agar dilution method at pH 7.2.
(§2) ^6 produces neomycinkanamycin phosphotransferase Type I and Type II

[2] = tested on: Pseudomonas aeruginosa KY 8519
Description: as §1, §2

[3] = tested on: Streptococcus faecalis ATCC 10541; conditions: Enterococcus faecalis, ATCC10541, pH 7.2, read-out: Minimum Inhibitory Concentration
Description: as §1

[4] = tested on: Salmonella typhimurium E-9; conditions: Salmonella enterica, pH 7.2, read-out: Minimum Inhibitory Concentration
Description: as §1

[5] = tested on: Pseudomonas aeruginosa BMH 1; conditions: BMH1, pH 7.2, read-out: Minimum Inhibitory Concentration
Description: as §1

[6] = tested on: Pseudomonas aeruginosa NC-5; conditions: NC5, agar dilution, pH 7.2, read-out: Minimum Inhibitory Concentration
Description: as §1

[7] = tested on: Pseudomonas aeruginosa No. 12; conditions: pH 7.2, read-out: Minimum Inhibitory Concentration
Description: as §1

[8] = tested on: Salmonella enteritidis G-14; conditions: Salmonella enterica, agar dilution, pH 7.2, read-out: Minimum Inhibitory Concentration
Description: as §1

[9] = tested on: Staphylococcus aureus Smith; conditions: pH 7.2, read-out: Minimum Inhibitory Concentration
Description: as §1

[10] = tested on: Pseudomonas aeruginosa E-2; conditions: E2, agar dilution, pH 7.2, read-out: Minimum Inhibitory Concentration
Description: as §1

Proteus rettgeri KY 4288 = conditions: Providencia rettgeri, KY4288, pH 7.2, read-out: Minimum Inhibitory Concentration
Description: as §1

Proteus vulgaris 6897 = conditions: pH 7.2, read-out: Minimum Inhibitory Concentration
Description: as §1

Sarcina lutea ATCC 9341 = conditions: Micrococcus luteus, ATCC9341, pH 7.2, read-out: Minimum Inhibitory Concentration
Description: as §1

Escherichia coli T-5 = conditions: T5, agar dilution, pH 7.2, read-out: Minimum Inhibitory Concentration
Description: as §1

[11] = tested on: Klebsiella pneumoniae No. 8045; conditions: pH 7.2, read-out: Minimum Inhibitory Concentration
Description: as §1

[12] = tested on: bacillus subtilis ATCC 6633; conditions: ATCC6633, pH 7.2, read-out: Minimum Inhibitory Concentration
Description: as §1

Escherichia coli Juhl = conditions: agar dilution, pH 7.2, read-out: Minimum Inhibitory Concentration
Description: as §1

[13] = tested on: Staphylococcus aureus 209 P; conditions: pH 7.2, read-out: Minimum Inhibitory Concentration
Description: as §1

[14] = tested on: Shigella sonnei ATCC 9290; conditions: ATCC9290, pH 7.2, read-out: Minimum Inhibitory Concentration
Description: as §1

Proteus morganii KY 4298 = conditions: Morganella morganii, KY4298; agar dilution, pH 7.2; read-out: Minimum Inhibitory Concentration
Description: as §1

Serratia sp T-55 = tested on: Serratia sp T-55
Description: as §1

[15] = tested on: Klebsiella pneumoniae Y-60; conditions: Y60, pH 7.2, strain produces gentamicin adenyltransferase, read-out: Minimum Inhibitory Concentration
Description: as §1
(§3) ^4 produces gentamicin adenyltransferase

[16] = tested on: Klebsiella pneumoniae Y-58; conditions: Y58, pH 7.2, strain produces gentamicin adenyltransferase, read-out: Minimum Inhibitory Concentration
Description: as §1, §3

[17] = tested on: Escherichia coli KY Z-338; conditions: KYZ338, pH 7.2, strain produces gentamicin adenyltransferase, read-out: Minimum Inhibitory Concentration
Description: as §1, §3

Escherichia coli KY 8321 = conditions: KY8321, pH 7.2, strain produces gentamicin adenyltransferase and neomycinkanamycin phosphotransferase Type II, read-out: Minimum Inhibitory Concentration
Description: as §1
^5 produces gentamicin adenyltransferase and neomycinkanamycin
phosphotransferase Type II

[18] = tested on: Pseudomonas aeruginosa KY Z-444; conditions: KYZ444, agar dilution, pH 7.2, strain produces 6N-acetyltransferase Type III, read-out: Minimum Inhibitory Concentration
Description: as §1
(§4) ^8 produces 6N-acetyltransferase Type III

[19] = tested on: Pseudomonas aeruginosa Z-445; conditions: Z445, pH 7.2, strain produces 6N-acetyltransferase Type III, read-out: Minimum Inhibitory Concentration
Description: as §1, §4

[20] = tested on: Pseudomonas aeruginosa KY 8510; conditions: KY8510, agar dilution, pH 7.2, strain produces kanamycin acetyltransferase, read-out: Minimum Inhibitory Concentration
Description: as §1
(§5) ^1 produces kanamycin acetyltransferase

[21] = tested on: Serratia marcescens POE 1065; conditions: POE1065, agar dilution, pH 7.2, strain produces kanamycin acetyltransferase, read-out: Minimum Inhibitory Concentration
Description: as §1, §5

[22] = tested on: Pseudomonas aeruginosa KY 8516; conditions: KY8516, agar dilution, pH 7.2, strain produces kanamycin acetyltransferase, read-out: Minimum Inhibitory Concentration
Description: as §1, §5

[23] = tested on: Escherichia coli KY Z-343; conditions: KYZ343, pH 7.2, strain produces kanamycin acetyltransferase, read-out: Minimum Inhibitory Concentration
Description: as §1, §5

[24] = tested on: Pseudomonas aeruginosa KY 8563; conditions: KY8563, agar dilution, pH 7.2, strain produces gentamicin acetyltransferase Type III, read-out: Minimum Inhibitory Concentration
Description: as §1
^7 produces gentamicin acetyltransferase Type III

Row | SMILES | MIC [1] | MIC [3] | MIC [4] | MIC [5] | MIC [6] | MIC [7] | MIC [8] | MIC [9] | MIC [10] | MIC (Proteus rettgeri KY 4288) | MIC (Proteus vulgaris 6897) | MIC (Sarcina lutea ATCC 9341) | MIC (Escherichia coli T-5) | MIC [11] | MIC [12] | MIC (Escherichia coli Juhl) | MIC [13] | MIC [14] | MIC (Proteus morganii KY 4298) | MIC [15] | also measured
1 | CNCC1CCC(N)C(OC2C(N)CC(NC(=O)C(O)CN)C(OC3OCC(C)(O)C(NC)C3O)C2O)O1 (racemic) [1-N-(DL-α-hydroxy-β-aminopropionyl) XK-62-2, reference compound] | 1.56 µg/mL (≈ 2.83 µM) | 12.5 µg/mL (≈ 22.7 µM) | 0.4 µg/mL (≈ 0.726 µM) | 1.56 µg/mL (≈ 2.83 µM) | 3.12 µg/mL (≈ 5.67 µM) | 0.78 µg/mL (≈ 1.42 µM) | 6.25 µg/mL (≈ 11.4 µM) | 0.2 µg/mL (≈ 0.363 µM) | 3.12 µg/mL (≈ 5.67 µM) | 1.56 µg/mL (≈ 2.83 µM) | 12.5 µg/mL (≈ 22.7 µM) | 0.4 µg/mL (≈ 0.726 µM) | 0.78 µg/mL (≈ 1.42 µM) | 0.78 µg/mL (≈ 1.42 µM) | 0.2 µg/mL (≈ 0.363 µM) | 0.78 µg/mL (≈ 1.42 µM) | 0.4 µg/mL (≈ 0.726 µM) | 0.78 µg/mL (≈ 1.42 µM) | 0.78 µg/mL (≈ 1.42 µM) | 0.4 µg/mL (≈ 0.726 µM) | MIC ([2]; KY8519, agar dilution, pH 7.2, strain produces neomycinkanamycin phosphotransferase Type I and Type II, read-out: Minimum Inhibitory Concentration): 6.25 µg/mL (≈ 11.4 µM); MIC (Serratia sp T-55; T55, agar dilution, pH 7.2, read-out: Minimum Inhibitory Concentration): 1.56 µg/mL (≈ 2.83 µM); MIC [16]: 0.4 µg/mL (≈ 0.726 µM); MIC [17]: 0.2 µg/mL (≈ 0.363 µM); MIC (Escherichia coli KY 8321): 0.4 µg/mL (≈ 0.726 µM); MIC [18]: 1.56 µg/mL (≈ 2.83 µM); MIC [19]: 3.12 µg/mL (≈ 5.67 µM); MIC [20]: 3.12 µg/mL (≈ 5.67 µM); MIC [21]: 0.78 µg/mL (≈ 1.42 µM); MIC [22]: 3.12 µg/mL (≈ 5.67 µM); MIC [23]: 0.2 µg/mL (≈ 0.363 µM); MIC [24]: 3.12 µg/mL (≈ 5.67 µM)
2 | CC1(O)COC(OC2C(NC(=O)C(O)CN)CC(N)C(OC3OC(CN)CCC3N)C2O)C(O)C1N (racemic) [Compound I-1, 3"-N, 6'-N-didemethyl-1-N-(DL-α-hydroxy-β-aminopropionyl) XK-62-2] | 0.78 µg/mL (≈ 1.49 µM) | 12.5 µg/mL (≈ 23.9 µM) | 0.78 µg/mL (≈ 1.49 µM) | 0.78 µg/mL (≈ 1.49 µM) | 0.78 µg/mL (≈ 1.49 µM) | 0.4 µg/mL (≈ 0.765 µM) | 6.25 µg/mL (≈ 12 µM) | 0.2 µg/mL (≈ 0.383 µM) | 1.56 µg/mL (≈ 2.99 µM) | 0.78 µg/mL (≈ 1.49 µM) | 6.25 µg/mL (≈ 12 µM) | 0.78 µg/mL (≈ 1.49 µM) | 1.56 µg/mL (≈ 2.99 µM) | 0.4 µg/mL (≈ 0.765 µM) | 0.1 µg/mL (≈ 0.191 µM) | 1.56 µg/mL (≈ 2.99 µM) | 0.2 µg/mL (≈ 0.383 µM) | 3.12 µg/mL (≈ 5.97 µM) | 1.56 µg/mL (≈ 2.99 µM) | 0.78 µg/mL (≈ 1.49 µM) | MIC ([2]; KY8519, pH 7.2, read-out: Minimum Inhibitory Concentration): 3.12 µg/mL (≈ 5.97 µM); MIC (Serratia sp T-55; T55, pH 7.2, read-out: Minimum Inhibitory Concentration): 3.12 µg/mL (≈ 5.97 µM); MIC [16]: 0.78 µg/mL (≈ 1.49 µM); MIC [17]: 0.78 µg/mL (≈ 1.49 µM); MIC (Escherichia coli KY 8321): 1.56 µg/mL (≈ 2.99 µM); MIC [18]: 1.56 µg/mL (≈ 2.99 µM); MIC [19]: 6.25 µg/mL (≈ 12 µM); MIC [20]: 12.5 µg/mL (≈ 23.9 µM); MIC [21]: 50 µg/mL (≈ 95.7 µM); MIC [22]: 50 µg/mL (≈ 95.7 µM); MIC [23]: 0.4 µg/mL (≈ 0.765 µM); MIC [24]: 1.56 µg/mL (≈ 2.99 µM)
